Data from US20110178053A1, “AZACARBOLINE DERIVATIVES, PREPARATION METHOD THEREOF AND THERAPEUTIC USE OF SAME” (SANOFI-AVENTIS, priority 2008, published 2011).

Tests used:
Format in all cases: biochemical
Pim-2 = biological target: T1, Pim-2 (Homo sapiens, UniProt Q9P1W9); assay: TR-FRET assay, Pim-2 kinase (phosphorylation of Bad Ser112); settings: TR-FRET; ATP 40 μM; read-out: IC50 Pim2
T1 construct: His6-labelled recombinant full-length human Pim-1, Pim-2 or Pim-3 protein; His6; made in house
T1 sequence (Q9P1W9 whole entry): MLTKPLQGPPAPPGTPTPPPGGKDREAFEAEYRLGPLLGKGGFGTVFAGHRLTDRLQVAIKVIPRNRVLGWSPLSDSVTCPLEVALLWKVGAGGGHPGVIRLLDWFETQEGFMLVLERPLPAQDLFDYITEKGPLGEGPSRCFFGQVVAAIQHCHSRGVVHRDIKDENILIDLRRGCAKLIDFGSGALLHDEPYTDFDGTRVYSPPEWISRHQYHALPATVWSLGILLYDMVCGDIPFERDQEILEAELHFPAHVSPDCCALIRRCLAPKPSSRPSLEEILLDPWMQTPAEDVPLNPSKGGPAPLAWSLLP
Procedure: (§1) In order to determine the inhibition of activation of Pim kinases, the compounds of the invention are tested in accordance with a routinely used in vitro TR-FRET assay (Time-Resolved Fluorescence Resonance Energy Transfer). […] For the assay, the following reagents are used:
(§2) Pim kinase—His6-labelled recombinant full-length human Pim-1, Pim-2 or Pim-3 protein (prepared according to J. Mol. Biol. (2005) 348, 183-193); Bad—His6-labelled recombinant full-length human Bad protein (prepared according to J. Mol. Biol. (2005) 348, 183-193); α-His6-APC—murine monoclonal antibody conjugated to allophycocyanin SureLight™ directed against the His6 label (Perkin-Elmer, No. AD0059H, Waltham, Mass., United States); • β-P˜Bad-Eu—murine monoclonal antibody (Cell Signaling Technology #9296B, Danvers, Mass., United States) directed against phosphoBad (Ser112) (7E11) custom-labelled by Perkin-Elmer with the reagent LANCE™ Eu-W1024.
(§3) The assay is based on Perkin-Elmer's LANCE™ technology: the Eu-labelled antibody binds to phospho-Ser112 and generates a TR-FRET signal by interaction with the APC-labelled antibody directed against His6, bound to the His6 label of Bad. The TR-FRET signal is detected using a SpectraMax M5 plate reader (Molecular Devices) with the following settings: λex=340 nm, λem1=615 nm, λem2=665 nm. The ratio of the fluorescence signal at 665 nm to the fluorescence signal at 615 nm is used as the signal reading for the IC50 (calculation is based on the 4-parameter logistic model). The assay is performed in a 384-well format; the liquid manipulations are performed using a Beckman 3000 liquid manipulations station. The test compounds are tested at 10 concentration points in duplicate; the highest compound concentration is typically equal to 30 μM. The ATP concentration is equal to 40 μM, which is equivalent to the apparent KM value.

Pim-1 = biological target: T2, Pim-1 (Homo sapiens, UniProt P11309); assay: TR-FRET assay, Pim-1 kinase (phosphorylation of Bad Ser112); settings: TR-FRET; ATP 40 μM; read-out: IC50 Pim1
T2 construct: His6-labelled recombinant full-length human Pim-1, Pim-2 or Pim-3 protein; His6; made in house
T2 sequence (P11309 whole entry): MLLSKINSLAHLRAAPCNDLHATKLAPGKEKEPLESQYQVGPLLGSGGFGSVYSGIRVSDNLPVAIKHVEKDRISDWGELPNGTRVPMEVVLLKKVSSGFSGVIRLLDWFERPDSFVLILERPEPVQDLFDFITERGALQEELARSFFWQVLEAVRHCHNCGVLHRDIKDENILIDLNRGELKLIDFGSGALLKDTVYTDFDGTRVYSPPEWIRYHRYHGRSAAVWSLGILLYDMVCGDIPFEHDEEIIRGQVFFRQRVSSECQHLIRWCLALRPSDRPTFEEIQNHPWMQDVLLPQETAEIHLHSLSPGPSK
Procedure: as §1, §2, §3

Pim-3 = biological target: T3, Pim-3 (Homo sapiens, UniProt Q86V86); assay: TR-FRET assay, Pim-3 kinase (phosphorylation of Bad Ser112); settings: TR-FRET; ATP 40 μM; read-out: IC50 Pim3
T3 construct: His6-labelled recombinant full-length human Pim-1, Pim-2 or Pim-3 protein; His6; made in house
Procedure: as §1, §2, §3

## COc1ncc(-c2c(F)cnc3[nH]c4cnc(-c5cccnc5)cc4c23)cn1 [Example 73, 3-fluoro-4-(2-methoxypyrimidin-5-yl)-6-(pyrid-3-yl)-9H-pyrrolo[2;3-b:5,4-c′]dipyridine]
Pim-2
  IC50: > 5000 nM
Pim-1
  IC50: 100 to 1000 nM
Pim-3
  IC50: 1000 to 5000 nM

## Nc1ccc(-c2c(F)cnc3[nH]c4cnc(-c5cccnc5)cc4c23)cn1 [Example 74, 5-[3-fluoro-6-(pyrid-3-yl)-9H-pyrrolo[2,3-b,-c′]dipyrid-4-yl]pyrid-2-amine]
Pim-2
  IC50: 1000 to 5000 nM
Pim-1
  IC50: 100 to 1000 nM
Pim-3
  IC50: 100 to 1000 nM

## CC(C)N1CCN(c2c(F)cnc3[nH]c4cnc(-c5cccnc5)cc4c23)CC1 [Example 75, 3-fluoro-4-[4-(propan-2-yl)-piperazin-1-yl]-6-(pyrid-3-yl)-9H-pyrrolo[2,3-b:5,4-c′]dipyridine]
Pim-2
  IC50: 1000 to 5000 nM
Pim-1
  IC50: 1 to 100 nM
Pim-3
  IC50: 100 to 1000 nM

## Fc1cnc2[nH]c3cnc(-c4cccnc4)cc3c2c1N1CCCCC1 [Example 76, 3-fluoro-4-(piperid-1-yl)-6-(pyrid-3-yl)-9H-pyrrolo[2,3-b:5,4-c′]dipyridine]
Pim-2
  IC50: 100 to 1000 nM
Pim-1
  IC50: 1 to 100 nM
Pim-3
  IC50: 1 to 100 nM

## CN1CCC(N2CCN(c3c(F)cnc4[nH]c5cnc(-c6cccnc6)cc5c34)CC2)CC1 [Example 77, 3-fluoro-4-[4-(1-methylpiperid-4-yl)piperazin-1-yl]-6-(pyrid-3-yl)-9H-pyrrolo-[2,3-b:5,4-c′]-dipyridine]
Pim-2
  IC50: > 5000 nM
Pim-1
  IC50: 100 to 1000 nM
Pim-3
  IC50: 100 to 1000 nM

## Fc1cnc2[nH]c3cnc(-c4cccnc4)cc3c2c1N1CCC(N2CCOCC2)CC1 [Example 78, 3-fluoro-4-[4-(morpholin-4-yl)piperid-1-yl]-6-(pyrid-3-yl)-9H-pyrrolo[2,3-b:5,4-c′]-dipyridine]
Pim-2
  IC50: > 5000 nM
Pim-1
  IC50: 1 to 100 nM
Pim-3
  IC50: 100 to 1000 nM

## CN1CCCN(c2c(F)cnc3[nH]c4cnc(-c5cccnc5)cc4c23)CC1 [Example 80, 3-fluoro-4-(4-methyl-1,4-diazepan-1-yl)-6-(pyrid-3-yl)-9H-pyrrolo[2,3-b:5,4-c′]dipyridine]
Pim-2
  IC50: > 5000 nM
Pim-1
  IC50: 100 to 1000 nM
Pim-3
  IC50: 100 to 1000 nM

## OCCN1CCN(c2c(F)cnc3[nH]c4cnc(-c5cccnc5)cc4c23)CC1 [Example 81, 2-{4-[3-fluoro-6-(pyrid-3-yl)-9H-pyrrolo[2,3-b:5,4-c′]dipyrid-4-yl]piperazin-1-yl}ethanol]
Pim-2
  IC50: 1000 to 5000 nM
Pim-1
  IC50: 1 to 100 nM
Pim-3
  IC50: 100 to 1000 nM

## CN1CCN(C2CCN(c3c(F)cnc4[nH]c5cnc(-c6cccnc6)cc5c34)CC2)CC1 [Example 82, 3-fluoro-4-[4-(4-methylpiperazin-1-yl)piperid-1-yl]-6-(pyrid-3-yl)-9H-pyrrolo-[2,3-b:5,4-c′]-dipyridine]
Pim-2
  IC50: 1000 to 5000 nM
Pim-1
  IC50: 1 to 100 nM
Pim-3
  IC50: 100 to 1000 nM

## Fc1cnc2[nH]c3cnc(-c4cccnc4)cc3c2c1N1CCC(N2CCCCC2)CC1 [Example 83, 4-(1.4′-bipiperid-1′-yl)-3-fluoro-6-(pyrid-3-yl)-9H-pyrrolo[2,3-b:5,4-c′]-dipyridine]
Pim-2
  IC50: > 5000 nM
Pim-1
  IC50: 100 to 1000 nM
Pim-3
  IC50: 100 to 1000 nM

## CN(C)C1CCN(c2c(F)cnc3[nH]c4cnc(-c5cccnc5)cc4c23)CC1 [Example 84, 1-[3-fluoro-6-(pyrid-3-yl)-9H-pyrrolo[2,3-b:5,4-c′]dipyrid-4-yl]-N,N-dimethylpiperid-4-amine]
Pim-2
  IC50: 1000 to 5000 nM
Pim-1
  IC50: 100 to 1000 nM
Pim-3
  IC50: 100 to 1000 nM

## Fc1cnc2[nH]c3cnc(-c4cccnc4)cc3c2c1N1CCC(N2CCCC2)CC1 [Example 85, 3-fluoro-6-(pyrid-3-yl)-4-[4-(pyrrolidin-1-yl)piperid-1-yl]-9H-pyrrolo[2,3-b:5,4-c′]-dipyridine]
Pim-2
  IC50: 1000 to 5000 nM
Pim-1
  IC50: 1 to 100 nM
Pim-3
  IC50: 100 to 1000 nM

## Fc1cnc2[nH]c3cnc(-c4cccnc4)cc3c2c1N1CCN(CCCN2CCOCC2)CC1 [Example 87, 3-fluoro-4-{4-[3-(morpholin-4-yl)propyl]piperazin-1-yl}-6-(pyrid-3-yl)-9H-pyrrolo-[2,3-b:5,4-c′]-dipyridine]
Pim-2
  IC50: 100 to 1000 nM
Pim-1
  IC50: 1 to 100 nM
Pim-3
  IC50: 1 to 100 nM

## CC(C)(N)C#Cc1c(F)cnc2[nH]c3cnc(-c4cccnc4)cc3c12 [Example 90, 4-[3-fluoro-6-(pyrid-3-yl)-9H-pyrrolo[2,3-b:5,4-c′]dipyrid-4-yl]-2-methylbut-3-yn-2-amine]
Pim-2
  IC50: > 5000 nM
Pim-1
  IC50: 100 to 1000 nM
Pim-3
  IC50: 100 to 1000 nM

## CC(C)(O)C#Cc1c(F)cnc2[nH]c3cnc(-c4cccnc4)cc3c12 [Example 91, 4-[3-fluoro-6-(pyrid-3-yl)-9H-pyrrolo[2,3-b:5,4-c′]dipyrid-4-yl]-2-methylbut-3-yn-2-ol]
Pim-2
  IC50: 1000 to 5000 nM
Pim-1
  IC50: 1 to 100 nM
Pim-3
  IC50: 1 to 100 nM

## COc1c(F)cnc2[nH]c3cnc(-c4cccnc4)cc3c12 [Example 105, 3-fluoro-4-methoxy-6-(pyrid-3-yl)-9H-pyrrolo[2,3-b:5,4-c′]dipyridine]
Pim-2
  IC50: > 5000 nM
Pim-1
  IC50: 1 to 100 nM
Pim-3
  IC50: 100 to 1000 nM

## CN1CCN(c2cnc3[nH]c4cnc(-c5cccnc5)cc4c3c2)CC1 [Example 106, 3-(4-methylpiperazin-1-yl)-6-(pyrid-3-yl)-9H-pyrrolo[2,3-b:5,4-c′]dipyridine]
Pim-2
  IC50: > 5000 nM
Pim-1
  IC50: 1 to 100 nM
Pim-3
  IC50: 1 to 100 nM

## c1cncc(-c2cc3c(cn2)[nH]c2ncc(N4CCNCC4)cc23)c1 [Example 108, 3-(piperazin-1-yl)-6-(pyrid-3-yl)-9H-pyrrolo[2,3-b:5,4-c′]-dipyridine]
Pim-2
  IC50: > 5000 nM
Pim-1
  IC50: 1 to 100 nM
Pim-3
  IC50: 1 to 100 nM

## Nc1cnc2[nH]c3cnc(-c4cccnc4)cc3c2c1 [Example 109, 6-(pyrid-3-yl)-9H-pyrrolo[2,3-b:5,4-c′]dipyrid-3-amine]
Pim-2
  IC50: > 5000 nM
Pim-1
  IC50: 1 to 100 nM
Pim-3
  IC50: 100 to 1000 nM

## FC(F)(F)COc1cnc2[nH]c3cnc(-c4cccnc4)cc3c2c1 [Example 111, 6-(pyrid-3-yl)-3-(2,2,2-trifluoroethoxy)-9H-pyrrolo[2,3-b:5,4-c′]dipyridine]
Pim-2
  IC50: 1000 to 5000 nM
Pim-1
  IC50: 1 to 100 nM
Pim-3
  IC50: 100 to 1000 nM

## Ic1cnc2[nH]c3cnc(-c4cccnc4)cc3c2c1 [Example 114, 3-iodo-6-(pyrid-3-yl)-9H-pyrrolo[2,3-b:5,4-c′]dipyridine]
Pim-2
  IC50: 1000 to 5000 nM
Pim-1
  IC50: 100 to 1000 nM
Pim-3
  IC50: 100 to 1000 nM

## CC(C)Cn1cc(-c2cnc3[nH]c4cnc(-c5cccnc5)cc4c3c2)cn1 [Example 117, 3-[1-(2-methyl-propyl)-1H-pyrazol-4-yl]-6-(pyrid-3-yl)-9H-pyrrolo[2,3-b:5,4-c′]dipyridine]
Pim-2
  IC50: 1000 to 5000 nM
Pim-1
  IC50: 1 to 100 nM
Pim-3
  IC50: 1 to 100 nM

## c1cncc(-c2cc3c(cn2)[nH]c2ncc(-c4cccc(N5CCNCC5)c4)cc23)c1 [Example 132, 3-[3-(piperazin-1-yl)phenyl]-6-(pyrid-3-yl)-9H-pyrrolo[2,3-b:5,4-c′]dipyridine]
Pim-2
  IC50: 100 to 1000 nM
Pim-1
  IC50: 1 to 100 nM
Pim-3
  IC50: 1 to 100 nM

## CN(C)CC(=O)N1CCN(c2cccc(-c3cnc4[nH]c5cnc(-c6cccnc6)cc5c4c3)c2)CC1 [Example 134, 2-(dimethylamino)-1-(4-{3-[6-(pyrid-3-yl)-9H-pyrrolo[2,3-b:5,4-c′]dipyrid-3-yl]-phenyl}piperazin-1-yl)ethanone]
Pim-2
  IC50: > 5000 nM
Pim-1
  IC50: 1 to 100 nM
Pim-3
  IC50: 1 to 100 nM
